Data as given in patent US12110286B2, “Benzimidazolone derived inhibitors of BCL6” (Cancer Research Technology Limited, priority 2017, dated 2024).

Biological target: Trx-6×His-BCL6 (human BCL6 BTB domain covering amino-acid sequence 5-129) (Homo sapiens (Human), UniProt P41182)
Assay: HTRF in vitro assay (BCL6 / BCOR-AF633 peptide)
Format: binding
Conditions: for activity in the HTRF assay: result in words
Experimental: The % inhibition at each concentration was calculated by normalising FRET ratio to the appropriate high (DMSO with all reagents) and low (DMSO without BCL6) controls.

[1] = further generated data, 1 nM Trx-6×His-BCL6, 300 nM BCOR-AF633 peptide, 0.5 nM anti-6×His-Terbium cryptate
[2] = initially generated data, 10 nM Trx-6×His-BCL6, 300 nM BCOR-AF633 peptide, 1 nM anti-6×His-Terbium cryptate

activity in the HTRF assay | HTRF pIC50 [1] | HTRF pIC50 [2] | SMILES
– | 6.06 | – | COC(Cn1c(=O)n(CCC(C)(C)O)c2cc(Nc3nc(N4C[C@@H](C)C(F)(F)[C@@H](C)C4)ncc3Cl)ccc21)OC [Example 41a, 5-((5-chloro-2-((3S,5R)-4,4-difluoro-3,5-dimethylpiperidin-1-yl)pyrimidin-4-yl)amino)-1-(2,2-dimethoxyethyl)-3-(3-hydroxy-3-methylbutyl)-1,3-dihydro-2H-benzo[d]imidazol-2-one]
– | 5.93 | – | CCC(C)(O)CCn1c(=O)n(C)c2ccc(Nc3ccnc(Cl)c3C#N)cc21 (stereo not drawn) [Example 27c, 2-chloro-4-((3-(3-hydroxy-3-methylpentyl)-1-methyl-2-oxo-2,3-dihydro-1H-benzo[d]imidazol-5-yl)amino)nicotinonitrile]
– | 5.71 | – | Cn1c(=O)n(C[C@@H]2CCCN2CC(F)F)c2cc(Nc3ccnc(Cl)c3C#N)ccc21 [Example 25i, (S)-2-chloro-4-((3-((1-(2,2-difluoroethyl)pyrrolidin-2-yl)methyl)-1-methyl-2-oxo-2,3-dihydro-1H-benzo[d]imidazol-5-yl)amino)nicotinonitrile]
– | 5.83 | – | CCC(=O)CCn1c(=O)n(C)c2ccc(Nc3ccnc(Cl)c3C#N)cc21 [Example 19a, 2-chloro-4-((1-methyl-2-oxo-3-(3-oxopentyl)-2,3-dihydro-1H-benzo[d]imidazol-5-yl)amino)nicotinonitrile]
– | 5.98 | – | C[C@@H]1CN(c2ncc(Cl)c(Nc3cnc4c(c3)n(CCC(C)(C)O)c(=O)n4CCC(C)(C)O)n2)C[C@H](C)C1(F)F [Example 35r, 6-((5-chloro-2-((3R,5S)-4,4-difluoro-3,5-dimethylpiperidin-1-yl)pyrimidin-4-yl)amino)-1,3-bis(3-hydroxy-3-methylbutyl)-1,3-dihydro-2H-imidazo[4,5-b]pyridin-2-one]
– | 5.76 | – | COCC(C)(O)CCn1c(=O)n(C)c2ccc(Nc3nc(-n4nc(C)cc4C)ncc3Cl)cc21 (stereo not drawn) [Example 15j]
– | 5.58 | – | Cn1c(=O)n(CC2COCCN2CC(F)(F)F)c2cc(Nc3ccnc(Cl)c3C#N)ccc21 (stereo not drawn) [Example 25a, 2-chloro-4-((1-methyl-2-oxo-3-((4-(2,2,2-trifluoroethyl)morpholin-3-yl)methyl)-2,3-dihydro-1H-benzo[d]imidazol-5-yl)amino)nicotinonitrile]
– | 6.05 | – | Cn1c(=O)n(CCC(C)(C)O)c2cc(Nc3nc(N4C[C@@H]5CC[C@@H](C5)C4)ncc3Cl)ccc21 [Example 35n, 5-((2-((1R,5S)-3-azabicyclo[3.2.1]octan-3-yl)-5-chloropyrimidin-4-yl)amino)-3-(3-hydroxy-3-methylbutyl)-1-methyl-1,3-dihydro-2H-benzo[d]imidazol-2-one]
– | 6.46 | – | Cn1c(=O)n(CCC(C)(C)O)c2cc(Nc3nc(N4CCC[C@H]4CO)ncc3Cl)ccc21 [Example 31a, (S)-5-((5-chloro-2-(2-(hydroxymethyl)pyrrolidin-1-yl)pyrimidin-4-yl)amino)-3-(3-hydroxy-3-methylbutyl)-1-methyl-1,3-dihydro-2H-benzo[d]imidazol-2-one]
– | 5.52 | – | CC[C@]1(O)CCC[C@H]1Cn1c(=O)n(C)c2ccc(Nc3ccnc(Cl)c3C#N)cc21 [Example 22m]
– | 5.44 | – | Cn1c(=O)n(CC2CCN2C(=O)OC(C)(C)C)c2cc(Nc3ccnc(Cl)c3C#N)ccc21 (stereo not drawn) [Example 19d]

Continued, compound first:

SMILES | activity in the HTRF assay | HTRF pIC50 [1] | HTRF pIC50 [2]
Cn1c(=O)n(CCC(C)(C)O)c2cc(Nc3cc(N4CCC(F)(F)CC4)ncc3Cl)ncc21 [6-((5-chloro-2-(4,4-difluoropiperidin-1-yl)pyridin-4-yl)amino)-1-(3-hydroxy-3-methylbutyl)-3-methyl-1,3-dihydro-2H-imidazo[4,5-c]pyridin-2-one] | did not exhibit the desired activity | – | –
Cn1c(=O)n(CCC(C)(C)O)c2cc(Nc3nc(N4CCOCC4)ncc3Cl)ccc21 [Example 20t] | – | 6.51 | –
Cn1c(=O)n(C)c2cc(Nc3cc(C(=O)O)nc(Cl)c3C#N)ccc21 [Example 1c, 6-chloro-5-cyano-4-[(1,3-dimethyl-2-oxo-benzimidazol-5-yl)amino]pyridine-2-carboxylic acid] | – | 6.08 | 6.05
Cn1c(=O)n(CCC(C)(C)O)c2cc(Nc3cc(Cl)ncc3C(F)F)ccc21 [5-((2-chloro-5-(difluoromethyl)pyridin-4-yl)amino)-3-(3-hydroxy-3-methylbutyl)-1-methyl-1,3-dihydro-2H-benzo[d]imidazol-2-one] | did not exhibit the desired activity | – | –
CCOC(=O)c1cnn(-c2ncc(Cl)c(Nc3ccc4c(c3)n(CCC(C)(C)O)c(=O)n4C)n2)c1 [Example 15b] | – | 5.96 | –
Cn1c(=O)n(CCC(C)(C)O)c2cc(Nc3nc(-n4ccc(C(F)(F)F)n4)ncc3Cl)ncc21 [6-((5-chloro-2-(3-(trifluoromethyl)-1H-pyrazol-1-yl)pyrimidin-4-yl)amino)-1-(3-hydroxy-3-methylbutyl)-3-methyl-1,3-dihydro-2H-imidazo[4,5-c]pyridin-2-one] | did not exhibit the desired activity | – | –
C#CCCNC(=O)c1cc(Nc2ccc3c(c2)n(CCC(C)C(=O)OC)c(=O)n3C)c(C#N)c(Cl)n1 (stereo not drawn) [Example 7b, Methyl 4-[6-[[6-(but-3-ynylcarbamoyl)-2-chloro-3-cyano-4-pyridyl]amino]-3-methyl-2-oxo-benzimidazol-1-yl]-2-methyl-butanoate] | – | – | 5.84
CCC(C)(O)Cn1c(=O)n(C)c2ccc(Nc3ccnc(Cl)c3C#N)cc21 (stereo not drawn) [2-chloro-4-((3-(2-hydroxy-2-methylbutyl)-1-methyl-2-oxo-2,3-dihydro-1H-benzo[d]imidazol-5-yl)amino)nicotinonitrile] | did not exhibit the desired activity | – | –
CCOC(CCn1c(=O)n(C)c2ccc(Nc3ccnc(Cl)c3C#N)cc21)C(=O)OC (stereo not drawn) [Example 10c] | – | 5.69 | 5.65
C[C@@H]1CN(c2ncc(Cl)c(Nc3ccc4c(c3)n(CCC(C)(C)O)c(=O)n4C)n2)C[C@H](C)O1 [Example 20j] | – | 6.80 | –
Cn1c(=O)n(CCN2CCOCC2)c2cc(Nc3ccnc(Cl)c3C#N)ccc21 [2-chloro-4-((1-methyl-3-(2-morpholinoethyl)-2-oxo-2,3-dihydro-1H-benzo[d]imidazol-5-yl)amino)nicotinonitrile] | did not exhibit the desired activity | – | –
Cn1c(=O)n(CC2CCNCC2)c2cc(Nc3ccnc(Cl)c3C#N)ccc21 [2-chloro-4-((1-methyl-2-oxo-3-(piperidin-4-ylmethyl)-2,3-dihydro-1H-benzo[d]imidazol-5-yl)amino)nicotinonitrile] | did not exhibit the desired activity | – | –
CCN(C)c1ncc(Cl)c(Nc2ccc3c(c2)n(CCC(C)(C)O)c(=O)n3C)n1 [Example 20i] | – | 6.17 | –
Cn1c(=O)n(CCC(C)(C)O)c2cc(Nc3ccnc(Cl)c3C(F)(F)F)ccc21 [5-((2-chloro-3-(trifluoromethyl)pyridin-4-yl)amino)-3-(3-hydroxy-3-methylbutyl)-1-methyl-1,3-dihydro-2H-benzo[d]imidazol-2-one] | did not exhibit the desired activity | – | –
Cn1c(=O)n(CC(O)Cn2cccn2)c2cc(Nc3ccnc(Cl)c3C#N)ccc21 (stereo not drawn) [Example 10f] | – | 5.48 | 5.49
Cc1cncnc1Nc1ccc2c(c1)n(C)c(=O)n2C [1,3-dimethyl-5-((5-methylpyrimidin-4-yl)amino)-1,3-dihydro-2H-benzo[d]imidazol-2-one] | did not exhibit the desired activity | – | –
